# Laboratory results reported in ChEMBL document CHEMBL1649267, “Molecular epidemiology and mechanisms of carbapenem resistance in Pseudomonas aeruginosa” (2009).
# How the values were obtained:
# Pseudomonas aeruginosa [1] = format: functional; details: isolate Paebeta-03
# Pseudomonas aeruginosa [2] = format: functional; details: isolate Paebeta-24
# Pseudomonas aeruginosa [3] = format: functional; details: isolate Paebeta-18
# Pseudomonas aeruginosa [4] = format: functional; details: isolate Paebeta-27
# Pseudomonas aeruginosa [5] = format: functional; details: isolate Paebeta-15
# Pseudomonas aeruginosa [6] = format: functional; details: isolate Paebeta-05
# Pseudomonas aeruginosa [7] = format: functional; details: isolate Paebeta-09
# Pseudomonas aeruginosa [8] = format: functional; details: isolate Paebeta-11
# Pseudomonas aeruginosa [9] = format: functional; details: isolate Paebeta-05; remark: listed apart in the source
# Pseudomonas aeruginosa [10] = format: functional; details: isolate Paebeta-32
# Pseudomonas aeruginosa [11] = format: functional; details: isolate Paebeta-26
# Pseudomonas aeruginosa [12] = format: functional; details: isolate Paebeta-07
# Pseudomonas aeruginosa [13] = format: functional; details: isolate Paebeta-27; remark: listed apart in the source
# Pseudomonas aeruginosa [14] = format: functional; details: isolate Paebeta-07; remark: listed apart in the source
# Pseudomonas aeruginosa [15] = format: functional; details: isolate Paebeta-17
# Pseudomonas aeruginosa [16] = format: functional; details: isolate Paebeta-30
# Pseudomonas aeruginosa [17] = format: functional; details: isolate Paebeta-24; remark: listed apart in the source
# Pseudomonas aeruginosa [18] = format: functional; details: isolate Paebeta-01
# Pseudomonas aeruginosa [19] = format: functional; details: isolate Paebeta-17; remark: listed apart in the source
# Pseudomonas aeruginosa [20] = format: functional; details: isolate Paebeta-29
# Pseudomonas aeruginosa [21] = format: functional; details: isolate Paebeta-30; remark: listed apart in the source
# Pseudomonas aeruginosa [22] = format: functional; details: isolate Paebeta-09; remark: listed apart in the source
# Pseudomonas aeruginosa [23] = format: functional; details: isolate Paebeta-11; remark: listed apart in the source
# Pseudomonas aeruginosa [24] = format: functional; details: isolate Paebeta-19
# Pseudomonas aeruginosa [25] = format: functional; details: isolate Paebeta-31
# Pseudomonas aeruginosa [26] = format: functional; details: isolate Paebeta-16
# Pseudomonas aeruginosa [27] = format: functional; details: isolate Paebeta-31; remark: listed apart in the source
# Pseudomonas aeruginosa [28] = format: functional; details: isolate Paebeta-08
# Pseudomonas aeruginosa [29] = format: functional; details: isolate Paebeta-26; remark: listed apart in the source
# Pseudomonas aeruginosa [30] = format: functional; details: isolate Paebeta-12
# Pseudomonas aeruginosa [31] = format: functional; details: isolate Paebeta-16; remark: listed apart in the source
# Pseudomonas aeruginosa [32] = format: functional; details: isolate Paebeta-29; remark: listed apart in the source
# Pseudomonas aeruginosa [33] = format: functional; details: isolate Paebeta-13
# Pseudomonas aeruginosa [34] = format: functional; details: isolate Paebeta-04
# Pseudomonas aeruginosa [35] = format: functional; details: isolate Paebeta-02
# Pseudomonas aeruginosa [36] = format: functional; details: isolate Paebeta-14
# Pseudomonas aeruginosa [37] = format: functional; details: isolate Paebeta-10
# Pseudomonas aeruginosa [38] = format: functional; details: isolate Paebeta-02; remark: listed apart in the source
# Pseudomonas aeruginosa [39] = format: functional; details: isolate Paebeta-28
# Pseudomonas aeruginosa [40] = format: functional; details: isolate Paebeta-25
# Pseudomonas aeruginosa [41] = format: functional; details: isolate Paebeta-01; remark: listed apart in the source
# Pseudomonas aeruginosa [42] = format: functional; details: isolate Paebeta-06
# Pseudomonas aeruginosa [43] = format: functional; details: isolate Paebeta-19; remark: listed apart in the source
# Pseudomonas aeruginosa [44] = format: functional; details: isolate Paebeta-04; remark: listed apart in the source
# Pseudomonas aeruginosa [45] = format: functional; details: isolate Paebeta-23
# Pseudomonas aeruginosa [46] = format: functional; details: isolate Paebeta-21
# Pseudomonas aeruginosa [47] = format: functional; details: isolate Paebeta-20
# Pseudomonas aeruginosa [48] = format: functional; details: isolate Paebeta-15; remark: listed apart in the source
# Pseudomonas aeruginosa [49] = format: functional; details: isolate Paebeta-32; remark: listed apart in the source
# Pseudomonas aeruginosa [50] = format: functional; details: isolate Paebeta-22
# Pseudomonas aeruginosa [51] = format: functional; details: isolate Paebeta-06; remark: listed apart in the source
# Pseudomonas aeruginosa [52] = format: functional; details: isolate Paebeta-18; remark: listed apart in the source
# Pseudomonas aeruginosa [53] = format: functional; details: isolate Paebeta-03; remark: listed apart in the source
# Pseudomonas aeruginosa [54] = format: functional; details: isolate Paebeta-28; remark: listed apart in the source
# Pseudomonas aeruginosa [55] = format: functional; details: isolate Paebeta-20; remark: listed apart in the source
# Pseudomonas aeruginosa [56] = experiment: microbe, parasite or virus in culture; details: isolate Paebeta-12
# Description: Antibacterial activity against mexB, mexY and mexD expressing Pseudomonas aeruginosa isolate Paebeta-12 harboring A residue at 105 position in PDC- 2 and polymorphic OprD gene by Etest method in presence of cloxacillin
# Pseudomonas aeruginosa [57] = format: functional; details: isolate Paebeta-14; remark: listed apart in the source
# Pseudomonas aeruginosa [58] = format: functional; details: isolate Paebeta-22; remark: listed apart in the source
# Pseudomonas aeruginosa [59] = format: functional; details: isolate Paebeta-21; remark: listed apart in the source
# Pseudomonas aeruginosa [60] = format: functional; details: isolate Paebeta-13; remark: listed apart in the source
# Pseudomonas aeruginosa [61] = format: functional; details: isolate Paebeta-10; remark: listed apart in the source
# Pseudomonas aeruginosa [62] = format: functional; details: isolate Paebeta-08; remark: listed apart in the source
# Pseudomonas aeruginosa [63] = format: functional; details: isolate Paebeta-23; remark: listed apart in the source
# Pseudomonas aeruginosa [64] = format: functional; details: isolate Paebeta-25; remark: listed apart in the source
smiles,measurement,setting,value
CO/N=C(\C(=O)N[C@@H]1C(=O)N2C(C(=O)[O-])=C(C[N+]3(C)CCCC3)CS[C@H]12)c1csc(N)n1,MIC,Pseudomonas aeruginosa [1],64 µg/mL
same,MIC,Pseudomonas aeruginosa [2],64 µg/mL
same,MIC,Pseudomonas aeruginosa [3],128 µg/mL
same,MIC,Pseudomonas aeruginosa [4],64 µg/mL
same,MIC,Pseudomonas aeruginosa [5],128 µg/mL
C[C@H]1[C@H](NC(=O)/C(=N\OC(C)(C)C(=O)O)c2csc(N)n2)C(=O)N1S(=O)(=O)O [AZTREONAM],MIC,Pseudomonas aeruginosa [3],128 µg/mL
CC(C)(O/N=C(\C(=O)N[C@@H]1C(=O)N2C(C(=O)[O-])=C(C[n+]3ccccc3)CS[C@H]12)c1csc(N)n1)C(=O)O [CEFTAZIDIME],MIC,Pseudomonas aeruginosa [1],16 µg/mL
same,MIC,Pseudomonas aeruginosa [6],32 µg/mL
same,MIC,Pseudomonas aeruginosa [7],2 µg/mL
same,MIC,Pseudomonas aeruginosa [8],16 µg/mL
same,MIC,Pseudomonas aeruginosa [9],32 µg/mL
same,MIC,Pseudomonas aeruginosa [10],8 µg/mL
same,MIC,Pseudomonas aeruginosa [11],4 µg/mL
same,MIC,Pseudomonas aeruginosa [12],2 µg/mL
same,MIC,Pseudomonas aeruginosa [13],4 µg/mL
same,MIC,Pseudomonas aeruginosa [2],64 µg/mL
same,MIC,Pseudomonas aeruginosa [14],16 µg/mL
same,MIC,Pseudomonas aeruginosa [15],64 µg/mL
same,MIC,Pseudomonas aeruginosa [16],8 µg/mL
same,MIC,Pseudomonas aeruginosa [17],16 µg/mL
same,MIC,Pseudomonas aeruginosa [18],8 µg/mL
same,MIC,Pseudomonas aeruginosa [19],8 µg/mL
same,MIC,Pseudomonas aeruginosa [3],128 µg/mL
same,MIC,Pseudomonas aeruginosa [20],8 µg/mL
same,MIC,Pseudomonas aeruginosa [21],8 µg/mL
same,MIC,Pseudomonas aeruginosa [22],16 µg/mL
same,MIC,Pseudomonas aeruginosa [23],2 µg/mL
same,MIC,Pseudomonas aeruginosa [24],8 µg/mL
same,MIC,Pseudomonas aeruginosa [25],32 µg/mL
same,MIC,Pseudomonas aeruginosa [26],4 µg/mL
same,MIC,Pseudomonas aeruginosa [27],16 µg/mL
same,MIC,Pseudomonas aeruginosa [28],16 µg/mL
same,MIC,Pseudomonas aeruginosa [29],32 µg/mL
same,MIC,Pseudomonas aeruginosa [30],16 µg/mL
same,MIC,Pseudomonas aeruginosa [31],32 µg/mL
same,MIC,Pseudomonas aeruginosa [32],8 µg/mL
same,MIC,Pseudomonas aeruginosa [33],0.12 µg/mL
same,MIC,Pseudomonas aeruginosa [34],32 µg/mL
same,MIC,Pseudomonas aeruginosa [35],8 µg/mL
same,MIC,Pseudomonas aeruginosa [36],2 µg/mL
same,MIC,Pseudomonas aeruginosa [37],16 µg/mL
same,MIC,Pseudomonas aeruginosa [38],8 µg/mL
same,MIC,Pseudomonas aeruginosa [39],16 µg/mL
same,MIC,Pseudomonas aeruginosa [40],32 µg/mL
same,MIC,Pseudomonas aeruginosa [41],8 µg/mL
same,MIC,Pseudomonas aeruginosa [42],16 µg/mL
same,MIC,Pseudomonas aeruginosa [43],4 µg/mL
same,MIC,Pseudomonas aeruginosa [44],4 µg/mL
same,MIC,Pseudomonas aeruginosa [45],64 µg/mL
same,MIC,Pseudomonas aeruginosa [46],32 µg/mL
same,MIC,Pseudomonas aeruginosa [4],16 µg/mL
same,MIC,Pseudomonas aeruginosa [47],8 µg/mL
same,MIC,Pseudomonas aeruginosa [48],8 µg/mL
same,MIC,Pseudomonas aeruginosa [49],32 µg/mL
same,MIC,Pseudomonas aeruginosa [50],16 µg/mL
same,MIC,Pseudomonas aeruginosa [51],2 µg/mL
same,MIC,Pseudomonas aeruginosa [52],32 µg/mL
same,MIC,Pseudomonas aeruginosa [53],2 µg/mL
same,MIC,Pseudomonas aeruginosa [54],2 µg/mL
same,MIC,Pseudomonas aeruginosa [55],1 µg/mL
same,MIC,Pseudomonas aeruginosa [56],1 µg/mL
same,MIC,Pseudomonas aeruginosa [5],32 µg/mL
same,MIC,Pseudomonas aeruginosa [57],16 µg/mL
same,MIC,Pseudomonas aeruginosa [58],1 µg/mL
same,MIC,Pseudomonas aeruginosa [59],4 µg/mL
same,MIC,Pseudomonas aeruginosa [60],4 µg/mL
same,MIC,Pseudomonas aeruginosa [61],2 µg/mL
same,MIC,Pseudomonas aeruginosa [62],2 µg/mL
same,MIC,Pseudomonas aeruginosa [63],8 µg/mL
same,MIC,Pseudomonas aeruginosa [64],4 µg/mL
